The values below come from patent publication US7196110B2, “N-substituted tricyclic 3-aminopyrazoles as inhibitors for the treatment of cell proliferative disorders” (Janssen Phamaceutica N.V., priority 2002, dated 2007).

Molecules are shown by their SMILES. pIC50: −log10 of the molar value.

Assay [1] deals with T1, PDGF-receptor beta enzyme comprising the tyrosine kinase domain (Homo sapiens, UniProt P09619).
T1 construct: from amino acid 545 to 1106 of GenBank Access NO: AAA36427
As to the kind of experiment: Inhibition of PDGF-receptor kinase activity (cell-free, PLC1 peptide, 33P Flashplate). The settings on record: PDGF-R kinase activity; for inhibition at 10 µM: compound at 10 uM, read-out: Percent Inhibition @ 10 uM; for pIC50: read-out: IC50. The assay is classed as biochemical. The method in brief: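 Recombinant kinase domain (aa 545–1106) phosphorylated a biotinylated PLC1 peptide with 5 μM ATP plus 33P-γ-ATP, in Tris pH 8, MgCl2, Na3VO4 and 1 mM DTT, for 60 min at 30 °C. Retained 33P was counted after washing. IC50 is the concentration halving activity versus no-inhibitor reactions.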

Assay [2] deals with c-Abl kinase (Abelson murine leukemia virus, UniProt P00521). As to the kind of experiment: Inhibition of c-Abl kinase activity (cell-free, Abl peptide substrate, 33P Flashplate). The settings on record: IC50 for the c-Abl kinase activity. The assay is classed as biochemical. How it is done: The inhibitory activity of compounds within the scope of the invention on c-Abl kinase activity was tested according to the following procedure.
Chain of c-Abl kinase (P00521 115-385): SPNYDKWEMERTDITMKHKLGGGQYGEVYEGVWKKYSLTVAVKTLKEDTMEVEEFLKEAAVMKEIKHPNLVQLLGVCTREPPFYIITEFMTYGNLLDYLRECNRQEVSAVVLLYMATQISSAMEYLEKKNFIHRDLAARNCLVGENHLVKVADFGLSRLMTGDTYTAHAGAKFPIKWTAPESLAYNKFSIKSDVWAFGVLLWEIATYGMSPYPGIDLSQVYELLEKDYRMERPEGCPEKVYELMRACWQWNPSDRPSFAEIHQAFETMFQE
• 1. 10× Kinase Buffer [500 mM Tris-HCl pH=8, 100 mM MgCl2, 1 mM Na3VO4] • 2. 10 mM DTT [final concentration 1 mM] • 3. 10 mM ATP [final concentration 5 μM] (Gibco, Cat No:18330-019, Carlsbad, Calif.) • 4. ^33P-γ-ATP [NEG-602H; 2000–3000 Ci/mmol], 2 μCuries per well at 10 μCi/μl (0.2 μl/well) • 5. Abl enzyme (New England Biolabs, Cat No. P6050L, Beverly, Mass.) at 100 Units/μl use 10 Units/well (0.1 μl/well) • 6. Enzyme Dilution Buffer [50 mM Tris-HCl pH=8.0, 0.1% BSA] • 7. Wash/Stop Buffer [PBS+100 mM EDTA] • 8. NEN Streptavidin Flashplates (New England Nuclear, Cat No. SMP-103, Boston, Mass.). • 9. Abl Peptide Substrate (Biotin-[…]-amide) at 1 mM in 50 mM Tris-HCL pH=8.0. (Use at 1.0 μM). Procedure
Reagents were first mixed according to the following regimen:
The above reaction mixture was dispensed into each well of a Flashplate at 70 μl/well. To test the effect of a compound on Abl kinase activity, the test compound either in a fixed concentration or in serially diluted concentrations in 100% DMSO was added to appropriate wells at 1 μl/well.
Enzyme Abl was diluted in enzyme dilution buffer as following:
The kinase reaction was started by adding 30 μl of diluted Abl enzyme solution to each well on the Flashplate containing hot ATP (2 μCi/well) and Abl peptide substrate (at 1 μM final conc.), except wells of column 12 rows E and F, which were used to calculate the plate background. The Flashplate was swirled to mix and was incubated at 30° C. for 60 minutes. Then, the reaction mixture was discarded and the Flashplate was washed 3 times each with 200 μL Wash/Stop Buffer. Subsequently, each well on the Flashplate was filled with 200 μl of Wash/Stop buffer. The amount of ^33P retained in each well was measured using a Packard TopCount after the plate was sealed with a transparent plate sealer.
In order to test the potency of inhibition of present compounds, an IC50 for an individual compound was measured using the above procedure. As used herein, the IC50 for c-Abl kinase activity refers to the concentration of an inhibitor at which the activity of c-Abl kinase is reduced by one-half as compared with reactions containing no inhibitor.

As usually defined, the inhibition is the drop in the measured response relative to a control, in per cent. The term pIC50 denotes the IC50 on a negative log10 scale, so that one unit is a factor of ten.

T1 sequence (P09619 545-1106): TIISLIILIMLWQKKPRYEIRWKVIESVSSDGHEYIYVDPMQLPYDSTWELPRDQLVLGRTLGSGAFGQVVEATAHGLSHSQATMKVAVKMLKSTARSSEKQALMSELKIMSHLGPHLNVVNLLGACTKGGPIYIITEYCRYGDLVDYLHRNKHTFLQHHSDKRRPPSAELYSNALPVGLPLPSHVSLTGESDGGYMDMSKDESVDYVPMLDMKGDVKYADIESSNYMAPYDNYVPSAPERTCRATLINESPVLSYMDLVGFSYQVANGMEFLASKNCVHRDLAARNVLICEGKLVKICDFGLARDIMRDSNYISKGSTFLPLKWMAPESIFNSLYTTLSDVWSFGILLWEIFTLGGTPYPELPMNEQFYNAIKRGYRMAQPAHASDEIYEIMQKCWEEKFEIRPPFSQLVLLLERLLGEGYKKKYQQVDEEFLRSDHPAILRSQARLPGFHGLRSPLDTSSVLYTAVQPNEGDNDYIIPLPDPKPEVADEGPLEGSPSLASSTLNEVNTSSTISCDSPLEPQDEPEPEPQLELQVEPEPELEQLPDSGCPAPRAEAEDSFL

Take `COc1cc2c(cc1OCCCn1ccnc1)Cc1c-2n[nH]c1Nc1ccc(F)c(Cl)c1` [Compound 227, (3-Chloro-4-fluoro-phenyl)-[6-(3-imidazol-1-yl-propoxy)-7-methoxy-2,4-dihydro-indeno[1,2-c]pyrazol-3-yl]-amine]: the inhibition at 10 µM in assay [1] was found to be 83.5%. The negative logarithm of the IC50 (pIC50) in assay [1] was 7.46; in assay [2] it was 6.19.
Taken in the same sequence, the figures for `COc1cc2c(cc1OC)C(C)c1c-2n[nH]c1Nc1ccccc1` (stereo not drawn) [Compound 247, (6,7-Dimethoxy-4-methyl-2,4-dihydro-indeno[1,2-c]pyrazol-3-yl)-phenyl-amine] were 96%, 7.15 and 7.48.
As to `COc1cc2c(cc1OC)C(C)c1c-2n[nH]c1Nc1cccc(F)c1` (stereo not drawn) [Compound 249, (6,7-Dimethoxy-4-methyl-2,4-dihydro-indeno[1,2-c]pyrazol-3-yl)-(3-fluoro-phenyl)-amine], in assay [1], the inhibition at 10 µM worked out at 96% and the negative-log IC50 (pIC50) was 8.22. Further, the negative-log IC50 (pIC50) in assay [2] is 7.46.
On the same counts, the results for `COc1cccc(Nc2[nH]nc3c2C(C)c2cc(OC)c(OC)cc2-3)c1` (stereo not drawn) [Compound 253, (6,7-Dimethoxy-4-methyl-2,4-dihydro-indeno[1,2-c]pyrazol-3-yl)-(3-methoxy-phenyl)-amine] are 94%, 7.78 and 7.42.
Taken in the same sequence, the figures for `COc1cc2c(cc1OC)C(C)c1c-2n[nH]c1Nc1cccc(Br)c1` (stereo not drawn) [Compound 256, (3-Bromo-phenyl)-(6,7-dimethoxy-4-methyl-2,4-dihydro-indeno[1,2-c]pyrazol-3-yl)-amine] were 89%, 8.10 and 7.26.
On the same counts, the results for `COc1cccc(Nc2[nH]nc3c2Cc2cc(OCC(O)CO)c(OC)cc2-3)c1` (stereo not drawn) [Compound 260, 3-[7-Methoxy-3-(3-methoxy-phenylamino)-2,4-dihydro-indeno[1,2-c]pyrazol-6-yloxy]-propane-1,2-diol] are 91%, 8.82 and 7.89.
Regarding `COc1cc2c(cc1OCC(O)CO)Cc1c-2n[nH]c1Nc1ccc(F)c(Cl)c1` (stereo not drawn) [Compound 261, 3-[3-(3-Chloro-4-fluoro-phenylamino)-7-methoxy-2,4-dihydro-indeno[1,2-c]pyrazol-6-yloxy]-propane-1,2-diol], in assay [1], the inhibition at 10 µM came out at 71% and the pIC50 is 8.00. The negative-log IC50 (pIC50) in assay [2] was 7.19.
On the same counts, the results for `COc1cc2c(cc1OCC(O)CO)Cc1c-2n[nH]c1Nc1cccc(F)c1` (stereo not drawn) [Compound 262, 3-[3-(3-Fluoro-phenylamino)-7-methoxy-2,4-dihydro-indeno[1,2-c]pyrazol-6-yloxy]-propane-1,2-diol] are 90%, 9.00 and 7.57.
On the same counts, the results for `COc1cc2c(cc1OCC(O)CO)Cc1c-2n[nH]c1Nc1cccnc1` (stereo not drawn) [Compound 263, 3-[7-Methoxy-3-(pyridn-3-ylamino)-2,4-dihydro-indeno[1,2-c]pyrazol-6-yloxy]-propane-1,2-diol] are 103%, 7.34 and 6.29.
As for `COc1cc2c(cc1OCCCO)Cc1c-2n[nH]c1Nc1cccc(F)c1` [Compound 265, 3-[3-(3-Fluoro-phenylamino)-7-methoxy-2,4-dihydro-indeno[1,2-c]pyrazol-6-yloxy]-propan-1-ol], in assay [1], the inhibition at 10 µM came to 63% and the negative-log IC50 (pIC50) was 8.26. In assay [2], the negative logarithm of the IC50 (pIC50) is 7.07.
Take `COc1cccc(Nc2[nH]nc3c2Cc2cc(OCCCO)c(OC)cc2-3)c1` [Compound 266, 3-[7-Mehoxy-3-(3-methoxy-phenylamino)-2,4-dihydro-indeno[1,2-c]pyrazol-6-yloxy]-propan-1-ol]: in assay [1], the inhibition at 10 µM is 110% and the pIC50 is 8.81. Besides, the negative logarithm of the IC50 (pIC50) in assay [2] was 7.82.
On the same counts, the results for `COc1cc2c(cc1OCCCO)Cc1c-2n[nH]c1Nc1ccc(F)c(Cl)c1` [Compound 267, 3-[3-(3-Choloro-4-fluoro-phenylamino)-7-methoxy-2,4-dihydro-indeno[1,2-c]pyrazol-6-yloxy]-propan-1-ol] are 93.5%, 7.98 and 6.49.
Taken in the same sequence, the figures for `COc1cc2c(cc1OCCCO)Cc1c-2n[nH]c1Nc1cccc(Cl)c1` [Compound 268, 3-[3-(3-Chloro-phenylamino)-7-methoxy-2,4-dihydro-indeno[1,2-c]pyrazol-6-yloxy]-propan-1-ol] were 84%, 8.95 and 7.70.
Take `COc1cc2c(cc1OCC(O)CN1CCCC1)Cc1c-2n[nH]c1Nc1cccc(F)c1` (stereo not drawn) [Compound 269, 1-[3-(3-Fluoro-phenylamino)-7-methoxy-2,4-dihydro-indeno[1,2-c]pyrazol-6-yloxy]-3-pyrrolidin-1-yl-propan-2-ol]: in assay [1], the inhibition at 10 µM stood at 94%. In addition, the pIC50 is 9.23 in assay [1] and 7.00 in assay [2].
On to `COc1cccc(Nc2[nH]nc3c2Cc2cc(OCC(O)CN4CCCC4)c(OC)cc2-3)c1` (stereo not drawn) [Compound 270, 1-[7-Methoxy-3-(3-methoxy-phenylamino)-2,4-dihydro-indeno[1,2-c]pyrazol-6-yloxy]-3-pyrrolidin-1-yl-propan-2-ol], for which, in assay [1], the inhibition at 10 µM was determined as 107% and the pIC50 was 9.37. Further, the pIC50 in assay [2] is 7.44.
Taken in the same sequence, the figures for `COc1cc2c(cc1OCC(O)CN1CCCC1)Cc1c-2n[nH]c1Nc1ccc(F)c(Cl)c1` (stereo not drawn) [Compound 280, 1-[3-(3-Chloro-4-fluoro-phenylamino)-7-methoxy-2,4-dihydro-indeno[1,2-c]pyrazol-6-yloxy]-3-pyrrolidin-1-yl-propan-2-ol] were 102%, 8.76 and 6.44.
On to `COc1cc2c(cc1OCC(O)CN1CCCC1)Cc1c-2n[nH]c1Nc1cccnc1` (stereo not drawn) [Compound 281, 1-[7-Methoxy-3-(pyridin-3-ylamino)-2,4-dihydro-indeno[1,2-c]pyrazol-6-yloxy]-3-pyrrolidin-1-yl-propan-2-ol], for which, in assay [1], the inhibition at 10 µM stood at 67% and the pIC50 was 8.59. Further, the negative-log IC50 (pIC50) in assay [2] is 5.80.
Taken in the same sequence, the figures for `COc1cc2c(cc1OCC(O)CN1CCCC1)Cc1c-2n[nH]c1Nc1cccc(Cl)c1` (stereo not drawn) [Compound 282, 1-[3-(3-Chloro-phenylamino)-7-methoxy-2,4-dihydro-indeno[1,2-c]pyrazol-6-yloxy]-3-pyrrolidin-1-yl-propan-2-ol] were 99%, 10.05 and 7.37.
Taken in the same sequence, the figures for `COCCCOc1cc2c(cc1OCCCOC)-c1n[nH]c(Nc3cccc(F)c3)c1C2` [Compound 283, [6,7-Bis-(3-methoxy-propoxy)-2,4-dihydroindeno[1,2-c]pyrazol-3-yl]-(3-fluoro-phenyl)-amine] were 86.5%, 8.36 and 6.47.
Turning to `COCCCOc1cc2c(cc1OCCCOC)-c1n[nH]c(Nc3cccc(OC)c3)c1C2` [Compound 284, [6,7-Bis-(3-methoxy-propoxy)-2,4-dihydroindeno[1,2-c]pyrazol-3-yl]-(3-methoxy-phenyl)-amine], in assay [1], the inhibition at 10 µM came out at 84.6% and the pIC50 was 8.29. In assay [2], the pIC50 is 7.16.
Taken in the same sequence, the figures for `COCCCOc1cc2c(cc1OCCCOC)-c1n[nH]c(Nc3cccnc3)c1C2` [Compound 286, [6,7-Bis-(3-methoxy-propoxy)-2,4-dihydro-indeno[1,2-c]pyrazol-3-yl]-pyridin-3-yl-amine] were 95.5%, 7.79 and 5.53.
As for `COCCCOc1cc2c(cc1OCCCOC)-c1n[nH]c(Nc3ccc(F)c(Cl)c3)c1C2` [Compound 287, [6,7-Bis-(3-methoxy-propoxy)-2,4-dihydro-indeno[1,2-c]pyrazol-3-yl]-(3-Chloro-4-fluoro-phenyl)-amine], in assay [1], the inhibition at 10 µM is 92.5%. Besides, the values for the pIC50 in assay [1] and in assay [2] were 7.58 and 5.46, respectively.
